Results reported in PMC10959927, “Platinum iodido drugs show potential anti-tumor activity, affecting cancer cell metabolism and inducing ROS and senescence in gastrointestinal cancer cells” (Communications Biology, 2024).
Where “and” joins values, the source holds several entries; their conditions need not be identical. Equal entries are not always repeated.

What was measured:
C57Bl6 mice [1] = assay: In vivo safety: weight and Irwin's test after tail vein injection; set-up: species or system mouse; conditions: 1.4 mg/kg tail vein injection, early acute time points
NU-Foxn1nu nude mice [2] = assay: Urine analysis of treated xenograft mice; type: in vivo, mouse
Procedure: (§1) PANC1 cells were then trypsinized and resuspended in RPMI culture medium with 40% Matrigel (no. 45354234, Corning® Matrigel® Basement Membrane Matrix, LDEV-free, Cultek, Spain) at a concentration of 1 × 10^5 cells per 50 μL, and then 50 μL of the resuspended cells were subcutaneously injected into the right and left flanks of female 8 week-old NU-Foxn1nu nude mice (Janvier Labs, France). Tumor growth and volumes were monitored every 2–3 days for up to 4 weeks with a caliper, and tumor volumes (mm^3) were computed using the formula: 0.5 × D12 × D2, where D1 and D2 are the width or the […] diameter and the length or the smallest diameter of a given tumor, respectively. At the end of the experiment, mice were sacrificed, and tumors extracted, photographed, and weighed. (ii) For xenograft in vivo treatment experiments, 1 × 10^6 PANC1 cells resuspended in RPMI culture medium supplemented with 40% Matrigel (Corning®) were orthotopically injected in the pancreas of female NU-Foxn1nu nude mice (Janvier Labs, France). Approximately 2 months post injection, tumors were excised, cut into identical pieces of ~50 mm^3 and implanted (with RPMI culture medium supplemented with 40% Matrigel® Corning®) subcutaneously into the left and right flanks of 15 8 week-old NU-Foxn1nu nude mice (Janvier, France). […] Control mice were treated with 100 µl of physiological saline (0.9% NaCl). Tumor volumes were determined twice per week by caliper measurements throughout the course of the study as described above. At the indicated end point, mice were sacrificed, weighed, blood was collected in EDTA tubes (Aquisel, Cat no. 107545), urine was collected in 1.5 ml Eppendorf tubes, and tumors were excised, weighed, photographed, and fixed in 4% Paraformaldehyde (Alfa Aesar™).
(§2) Whole blood was analyzed with an Element HT5, Veterinary Hematology Analyzer (Scil animal care company GmbH, Madrid, Spain) and plasma was analyzed at the Analytical Laboratory of the Hospital Fundación Jiménez Díaz. Plasma-EDTA samples were examined for markers of renal (urea, BUN, and creatinine) and liver [bilirubin and GGT (γ-Glutamyltransferase)] injury. Urine was analyzed for protein, creatinine and glucose. Urea, creatinine, and glucose were detected by enzymatic assays, total protein by turbidimetry, and bilirubin and GGT via a colorimetric assay in the Cobas® Roche 701 module (a fully automated, high throughput photometric analyzer for a large array of quantitative and qualitative in vitro tests), following the manufacturer’s instructions.

C57Bl6 mice [3] = assay: Indirect calorimetry analyses (PhenoMaster); type: in vivo, mouse
Procedure: Indirect calorimetry analyses were carried out using a 16-chamber TSE PhenoMaster monitoring system (TSE Systems GmbH, Bad Homburg, Germany). Full access to food and water was continuously available, and intake was monitored using built-in devices located within each cage. Calorimetry measurements were carried out during a period of 72 h, according to animal weight, to exclude changes in body weight that would contribute to differences in energy expenditure measurements. […] Mice were introduced into individual chambers and were on a 12 h light-dark cycle (lights on at 07:00am) during the course of the experiment, with a maintained room temperature of 22 ± 2°C. Oxygen consumption and CO2 release was measured. From these values, respiratory exchange ratio (RER) was determined as VCO2/VO2 and energy expenditure (EE) was calculated as = ([…] + 1.232 x RER) x VO2. Locomotor activity was reported as the average light beam breaks (XT + YT) per min. XT and YT (T = total) were calculated from the sum of the ambulatory and fine movements. Water and food consumption (DRINK and FOOD, respectively, Fig. S8) were also monitored and recorded.

NU-Foxn1nu nude mice [4] = assay: Whole blood hematology of treated xenograft mice; type: in vivo, mouse; conditions: for Basophils / Eosinophils / Haemoglobin / Hematocrit / Lymphocytes / MCH / MCHC / MCV / MPV / Monocytes / Neutrophils / RDW-CV: individual mice
Procedure: as §1, §2

[5] = system: PANC1 cells in NU-Foxn1nu nude mice; assay: Xenograft of pre-treated PANC1 cells; type: in vivo, mouse; conditions: for Tumor Growth (mm3): ND: No Detected
Procedure: as §1

NU-Foxn1nu nude mice [6] = assay: Plasma biochemistry (renal and liver injury markers) of treated xenograft mice; type: in vivo, mouse; conditions: for BUN / Urea: blood
Procedure: as §1, §2

[7] = 17 days of I5 treatment, 1.4 mg/kg r.o. or i.p.
[8] = Intra-Peritoneal group (I5 1.4 mg/kg), single mice
[9] = Intra-Peritoneal group (I5 1.4 mg/kg), single mice, 1.4 mg/kg
[10] = Retro-Orbital group (I5 1.4 mg/kg), single mice, 1.4 mg/kg
[11] = Intra-Peritoneal group (I5 1.4 mg/kg), d17, single mice, 1.4 mg/kg
[12] = Retro-Orbital group (I5 1.4 mg/kg), d17, single mice, 1.4 mg/kg

SMILES: CC(C)[NH][Pt@SP3]([I])([I])[NH]C(C)C [I5, trans-[PtI2(isopropylamine)2]]
- adverse effects on weight and neurological perturbations (Irwin's test) (C57Bl6 mice [1]): no adverse effects
- adverse effects on urine analyses (NU-Foxn1nu nude mice [2]; [7]): no adverse effects
- Creatinine in Urine (NU-Foxn1nu nude mice [2]; [8]): 59 mg/dL
- Protein/Creatinine in Urine (NU-Foxn1nu nude mice [2]; [8]): 8814
- Glucose in Urine (NU-Foxn1nu nude mice [2]; [9]): 40 mg/dL and 20 mg/dL
- Protein in Urine (NU-Foxn1nu nude mice [2]; [9]): 80 mg/dL and 52 mg/dL
- Glucose in Urine (NU-Foxn1nu nude mice [2]; Retro-Orbital group (I5 1.4 mg/kg), single mice): 30 mg/dL
- Creatinine in Urine (NU-Foxn1nu nude mice [2]; [10]): 56 mg/dL and 57 mg/dL and 61 mg/dL
- Protein/Creatinine in Urine (NU-Foxn1nu nude mice [2]; [10]): 10536 and 9221 and 16383
- RER, EE, locomotor activity, food and water intake vs untreated (C57Bl6 mice [3]; C57Bl6 mice, 1.4 mg/kg i.v.): no differences were observed
- DRINK (C57Bl6 mice [3]; Fig. S8B left graph, individual mice): 4.49 mL and 10.13 mL and 7.81 mL and 7.64 mL and 8.16 mL
- adverse effects on hematocrit parameters (NU-Foxn1nu nude mice [4]; [7]): no adverse effects
- Basophils (NU-Foxn1nu nude mice [4]; Intra-peritoneal): 0.41 109 cells/L and 0.45 109 cells/L and 0.47 109 cells/L and 0.86 109 cells/L
- Eosinophils (NU-Foxn1nu nude mice [4]; Intra-peritoneal): 0.45 109 cells/L and 0.33 109 cells/L and 0.19 109 cells/L and 0.47 109 cells/L
- Haemoglobin (NU-Foxn1nu nude mice [4]; Intra-peritoneal): 18.5 g/dL and 17.5 g/dL and 19.1 g/dL and 17.7 g/dL
- Hematocrit (NU-Foxn1nu nude mice [4]; Intra-peritoneal): 43.4% and 39.8% and 44.6%
- Lymphocytes (NU-Foxn1nu nude mice [4]; Intra-peritoneal): 4.49 109 cells/L and 2.36 109 cells/L and 3.04 109 cells/L and 4.43 109 cells/L
- MCH (NU-Foxn1nu nude mice [4]; Intra-peritoneal): 19.3 pg and 19.1 pg and 19.2 pg and 19.7 pg
- MCHC (NU-Foxn1nu nude mice [4]; Intra-peritoneal): 42.6 g/dL and 44 g/dL and 42.8 g/dL and 44.4 g/dL
- MCV (NU-Foxn1nu nude mice [4]; Intra-peritoneal): 45.3 fL and 43.5 fL and 44.8 fL and 44.2 fL
- MPV (NU-Foxn1nu nude mice [4]; Intra-peritoneal): 6.1 fL and 5.5 fL and 6 fL
- Monocytes (NU-Foxn1nu nude mice [4]; Intra-peritoneal): 1.17 109 cells/L and 0.96 109 cells/L and 0.45 109 cells/L and 3.1 109 cells/L
- Neutrophils (NU-Foxn1nu nude mice [4]; Intra-peritoneal): 4.24 109 cells/L and 2.95 109 cells/L and 1.59 109 cells/L and 5.08 109 cells/L
- RDW-CV (NU-Foxn1nu nude mice [4]; Intra-peritoneal): 13.9% and 14.8% and 14.3%
- Basophils (NU-Foxn1nu nude mice [4]; Retro-orbital): 0.43 109 cells/L and 0.62 109 cells/L and 0.64 109 cells/L
- Eosinophils (NU-Foxn1nu nude mice [4]; Retro-orbital): 0.21 109 cells/L and 0.31 109 cells/L and 0.34 109 cells/L
- Haemoglobin (NU-Foxn1nu nude mice [4]; Retro-orbital): 18.3 g/dL
- Hematocrit (NU-Foxn1nu nude mice [4]; Retro-orbital): 42.9% and 41.4% and 42.8%
- Lymphocytes (NU-Foxn1nu nude mice [4]; Retro-orbital): 2.46 109 cells/L and 3.66 109 cells/L and 5.37 109 cells/L
- MCH (NU-Foxn1nu nude mice [4]; Retro-orbital): 19 pg and 20.5 pg and 19.2 pg
- MCHC (NU-Foxn1nu nude mice [4]; Retro-orbital): 42.6 g/dL and 44.2 g/dL and 42.9 g/dL
- MCV (NU-Foxn1nu nude mice [4]; Retro-orbital): 44.5 fL and 46.3 fL and 44.8 fL
- MPV (NU-Foxn1nu nude mice [4]; Retro-orbital): 5.6 fL and 6.1 fL and 5.2 fL
- Monocytes (NU-Foxn1nu nude mice [4]; Retro-orbital): 0.91 109 cells/L and 0.87 109 cells/L and 0.47 109 cells/L
- Neutrophils (NU-Foxn1nu nude mice [4]; Retro-orbital): 3.45 109 cells/L and 3.24 109 cells/L and 2.71 109 cells/L
- RDW-CV (NU-Foxn1nu nude mice [4]; Retro-orbital): 14.2% and 14.7% and 14.6%
- Tumor Take (%) ([5]; Day 7): 0%
- Tumor Take (%) ([5]; Day 10): 12.5%
- Tumor Growth (mm3) ([5]; Day 10, individual tumors): 10.7 mm3
- Tumor Take (%) ([5]; Day 13): 12.5%
- Tumor Growth (mm3) ([5]; Day 13, individual tumors): 7.7 mm3
- Tumor Take (%) ([5]; Day 16): 25%
- Tumor Growth (mm3) ([5]; Day 16, individual tumors): 9.4 mm3 and 8.5 mm3
- Tumor Take (%) ([5]; Day 20): 25%
- Tumor Growth (mm3) ([5]; Day 20, individual tumors): 7.4 mm3 and 10.1 mm3
- Tumor Take (%) ([5]; Day 23): 37.5%
- Tumor Growth (mm3) ([5]; Day 23, individual tumors): 8 mm3 and 10.9 mm3 and 9.7 mm3
- Tumor Take (%) ([5]; Day 28): 62.5%
- Tumor Growth (mm3) ([5]; Day 28, individual tumors): 9.8 mm3 (2×) and 10.8 mm3 and 10.9 mm3 and 11.6 mm3 and 8.7 mm3
- tumor volumes and weights on day 28 ([5]; PANC1 cells pre-treated 24 h with 20 µM, injected s.c. into nude mice): significantly reduced volumes and weights
- tumor take and growth ([5]; PANC1 cells pre-treated 24 h with 20 µM, injected s.c. into nude mice, 28 days): clear delay in tumor take and growth
- Tumor Weight ([5]; individual tumors): 0.1301 g and 0.0568 g and 0.1068 g and 0.0882 g and 0.0887 g and 0.1001 g
- adverse effects on plasma blood analyses (NU-Foxn1nu nude mice [6]; [7]): no adverse effects
- GGT (NU-Foxn1nu nude mice [6]; Intra-Peritoneal group (I5 1.4 mg/kg), d17, single mice): < 3 UI/L
- Serum Creatinine (NU-Foxn1nu nude mice [6]; [11]): 0.2 mg/dL and 0.17 mg/dL and 0.22 mg/dL
- GGT (NU-Foxn1nu nude mice [6]; Retro-Orbital group (I5 1.4 mg/kg), d17, single mice): < 3 UI/L
- Serum Creatinine (NU-Foxn1nu nude mice [6]; [12]): 0.17 mg/dL and 0.2 mg/dL and 0.21 mg/dL
- Total Bilirubin (NU-Foxn1nu nude mice [6]; [12]): < 0.15 mg/dL and < 0.21 mg/dL
- BUN (NU-Foxn1nu nude mice [6]; [11]): 19 mg/dL and 18 mg/dL and 16 mg/dL
- Urea (NU-Foxn1nu nude mice [6]; [11]): 40 mg/dL and 39 mg/dL and 38 mg/dL and 35 mg/dL
- BUN (NU-Foxn1nu nude mice [6]; [12]): 16 mg/dL and 19 mg/dL
- Urea (NU-Foxn1nu nude mice [6]; [12]): 40 mg/dL and 34 mg/dL and 35 mg/dL
